What was measured:
[1] = Acute drug toxicity: deaths by day 7 after intracranial drug injection; type: in vivo, mice; conditions: mouse, in vivo, 0.2 mg/kg; read-out: % of Mice That Died
Method: (§1) The use of vinblastine (VBL) and vincristine (VC) alone and in combination with a protein carrier on the growth of experimental murine tumors grown intracranially was investigated. Halothane-anesthesized C3H mice 12-16 weeks in age were injected intracranially (i.c.) into the right frontal lobe with 10 µl total volume of Hank's balanced salt solution containing 5 X 10⁴ KHT fibrosarcoma cells through a burr hole made in the exposed cranium with a compressed air-driven drill. Following injection, the cranium was sealed with bone wax, and the overlying skin was sutured.
(§2) The test solution with and without matrix and the saline control were delivered intracranially (i.c.) in an injection volume of 10 µl through the same burr hole used for tumor cell inoculation. All mice were observed daily.
(§3) The acute drug toxicity level was determined by the percentage of animal survival on day 7 following drug injection. A comparison of the acute toxicity (deaths) of mice treated i.c. with matrix-associated VBL to aqueous VBL (10 µl) injection volume to the right frontal lobe is shown in Table 1 below. […]

[2] = test system: C3H mice; experiment: as above; type: in vivo; conditions: 0.2 mg/kg vinblastine i.c., 10 µl, right frontal lobe, 5 days post tumor implantation; deaths by day 7 following drug injection; epinephrine 0.1 mg/kg; matrix 1:1 bovine collagen 36 mg/ml
Method: as §1, §2, §3

## CC[C@]1(O)C[C@@H]2CN(CCc3c([nH]c4ccccc34)[C@@](C(=O)OC)(c3cc4c(cc3OC)N(C)[C@H]3[C@@](O)(C(=O)OC)[C@H](OC(C)=O)[C@]5(CC)C=CCN6CC[C@]43[C@@H]65)C2)C1 [Vinblastine, vinblastine]
[1]
  mortality at 168 h: 26%
[2]
  Number of Mice That Died: 7

— patent publication EP0328389A2, “Compostions for treating intracranial tumors” (MATRIX PHARMACEUTICAL INC., priority 1988, dated 1989)
